Measured values as given in ChEMBL document CHEMBL4219183, “Novel purine benzimidazoles as antimicrobial agents by regulating ROS generation and targeting clinically resistant Staphylococcus aureus DNA groove” (Bioorg Med Chem Lett, 2018).
In brackets after ≈: the same amount, converted by molar mass. Activity calls are given as the source filed them. The rule behind the calls is not given here.

How the values were obtained:
DNA [1] = test: Binding affinity to Staphylococcus aureus genomic DNA assessed as modified Stern-Volmer quenching constant at pH 7.4 at 314 K by fluorescence quenching analysis; type: nucleic-acid assay
Staphylococcus aureus [2] = test: Antibacterial activity against methicillin-resistant Staphylococcus aureus N315 after 24 hrs by two fold serial dilution method; type: functional; settings: N315, 24 h
Staphylococcus aureus [3] = test: Antibacterial activity against Staphylococcus aureus ATCC 25923 after 24 hrs by two fold serial dilution method; type: functional; settings: ATCC 25923, 24 h
Candida albicans [4] = test: Antifungal activity against Candida albicans after 24 hrs by two fold serial dilution method; type: functional
Staphylococcus aureus [5] = test: Antibacterial activity against Staphylococcus aureus ATCC 29213 after 24 hrs by two fold serial dilution method; type: functional; settings: ATCC 29213, 24 h
[6] = Cytotoxicity against human A549 cells assessed as cell viability at <500 ug/ml after 48 hrs by MTT assay relative to control; type: cell-based; settings: read-out: Activity
Acinetobacter baumannii = test: Antibacterial activity against Acinetobacter baumannii after 24 hrs by two fold serial dilution method; type: functional
DNA [7] = test: Binding affinity to Staphylococcus aureus genomic DNA assessed as change in entropy at 304 K; type: nucleic-acid assay
DNA [8] = test: Binding affinity to Staphylococcus aureus genomic DNA assessed as modified Stern-Volmer quenching constant at pH 7.4 at 304 K by fluorescence quenching analysis; type: nucleic-acid assay
DNA [9] = test: Binding affinity to Staphylococcus aureus genomic DNA assessed as gibbs free energy change at 294 K; type: nucleic-acid assay
Staphylococcus aureus [10] = test: Potency index, ratio of norfloxacin MIC to compound MIC for Staphylococcus aureus; type: functional
Escherichia coli [11] = test: Antibacterial activity against Escherichia coli after 24 hrs by two fold serial dilution method; type: functional
DNA [12] = test: Binding affinity to Staphylococcus aureus genomic DNA by UV absorption spectral analysis; type: nucleic-acid assay
DNA [13] = test: Binding affinity to Staphylococcus aureus genomic DNA assessed as modified Stern-Volmer quenching constant at pH 7.4 at 294 K by fluorescence quenching analysis; type: nucleic-acid assay
DNA [14] = test: Binding affinity to Staphylococcus aureus genomic DNA assessed as gibbs free energy change at 304 K; type: nucleic-acid assay
DNA [15] = test: Binding affinity to Staphylococcus aureus genomic DNA assessed as gibbs free energy change at 314 K; type: nucleic-acid assay
Escherichia coli [16] = test: Antibacterial activity against Escherichia coli ATCC 25922 after 24 hrs by two fold serial dilution method; type: functional; settings: ATCC 25922, 24 h
Candida tropicalis = test: Antifungal activity against Candida tropicalis after 24 hrs by two fold serial dilution method; type: functional
DNA [17] = test: Binding affinity to Staphylococcus aureus genomic DNA assessed as hyperchromic shift at 2.5 to 20 x 10^-6mol/L by UV absorption spectral analysis; type: nucleic-acid assay
Candida albicans [18] = test: Antifungal activity against Candida albicans ATCC 90023 after 24 hrs by two fold serial dilution method; type: functional; settings: ATCC 90023, 24 h
Staphylococcus aureus [19] = test: Antibacterial activity against Staphylococcus aureus after 24 hrs by two fold serial dilution method; type: functional
DNA [20] = test: Binding affinity to Staphylococcus aureus genomic DNA assessed as change in enthalpy at 304 K; type: nucleic-acid assay
HeLa = test: Induction of ROS generation in human HeLa cells at 6.25 to 50 uM by DCFH-DA staining based fluorescence microscopic method; type: cell-based
Candida parapsilosis = test: Antifungal activity against Candida parapsilosis ATCC 22019 after 24 hrs by two fold serial dilution method; type: functional; settings: ATCC 22019, 24 h
Klebsiella pneumoniae = test: Antibacterial activity against Klebsiella pneumoniae after 24 hrs by two fold serial dilution method; type: functional
Aspergillus fumigatus = test: Antifungal activity against Aspergillus fumigatus after 24 hrs by two fold serial dilution method; type: functional
DNA [21] = test: Binding affinity to Staphylococcus aureus genomic DNA at pH 7.4 at 294 K by fluorescence quenching analysis; type: nucleic-acid assay
DNA [22] = test: Binding affinity to Staphylococcus aureus genomic DNA at pH 7.4 at 314 K by fluorescence quenching analysis; type: nucleic-acid assay
DNA [23] = test: Inhibition of neutral red binding to Staphylococcus aureus genomic DNA up to 20 x 10^-6mol/L by UV absorption spectral analysis; type: nucleic-acid assay
DNA [24] = test: Binding affinity to Staphylococcus aureus genomic DNA at pH 7.4 at 304 K by fluorescence quenching analysis; type: nucleic-acid assay
DNA [25] = test: Binding affinity to Staphylococcus aureus genomic DNA assessed as iodide quenching constant at pH 7.4 by fluorescence quenching analysis (reference value: 28.74 L/mol); type: nucleic-acid assay
Pseudomonas aeruginosa [26] = test: Antibacterial activity against Pseudomonas aeruginosa after 24 hrs by two fold serial dilution method; type: functional
Enterococcus faecalis = test: Antibacterial activity against Enterococcus faecalis after 24 hrs by two fold serial dilution method; type: functional
Pseudomonas aeruginosa [27] = test: Antibacterial activity against Pseudomonas aeruginosa ATCC 27853 after 24 hrs by two fold serial dilution method; type: functional; settings: ATCC 27853, 24 h

SMILES	MIC (Staphylococcus aureus [2]) [µg/mL]	MIC (Staphylococcus aureus [3]) [µg/mL]	MIC80 (Candida albicans [4]) [µg/mL]	MIC (Staphylococcus aureus [5]) [µg/mL]	MIC (Acinetobacter baumannii) [µg/mL]	MIC (Escherichia coli [11]) [µg/mL]	MIC (Escherichia coli [16]) [µg/mL]	MIC80 (Candida tropicalis) [µg/mL]	MIC80 (Candida albicans [18]) [µg/mL]	MIC (Staphylococcus aureus [19]) [µg/mL]	MIC80 (Candida parapsilosis) [µg/mL]	MIC (Klebsiella pneumoniae) [µg/mL]	MIC80 (Aspergillus fumigatus) [µg/mL]	MIC (Pseudomonas aeruginosa [26]) [µg/mL]	MIC (Enterococcus faecalis) [µg/mL]	MIC (Pseudomonas aeruginosa [27]) [µg/mL]	also measured
CCCCCCn1c(Cn2cnc3c(N4CCOCC4)ncnc32)nc2ccccc21	16 (≈ 38.1 µM)	64 (≈ 153 µM)	32 (≈ 76.3 µM)	512 (≈ 1220 µM)	64 (≈ 153 µM)	128 (≈ 305 µM)	8 (≈ 19.1 µM)	64 (≈ 153 µM)	32 (≈ 76.3 µM)	4 (≈ 9.53 µM)	128 (≈ 305 µM)	64 (≈ 153 µM)	128 (≈ 305 µM)	64 (≈ 153 µM)	128 (≈ 305 µM)	16 (≈ 38.1 µM)	Ka (DNA [1]): 1.73 ×10⁴ L/mol; viability at 48 h [6]: > 85%; deltaS (DNA [7]): -13.6 J/mol.K; Ka (DNA [8]): 2.33 ×10⁴ L/mol; deltaG (DNA [9]): -6.16 kcal/mol; Ratio (Staphylococcus aureus [10]): 16; K (DNA [12]): 4.92 ×10⁵ L/mol; Ka (DNA [13]): 3.76 ×10⁴ L/mol; deltaG (DNA [14]): -6.13 kcal/mol; deltaG (DNA [15]): -6.09 kcal/mol; Activity (DNA [17]): Active; deltaH (DNA [20]): -7.12 kcal/mol; Activity (HeLa): Non-Toxic; KSV (DNA [21]): 1.87 ×10⁴ L/mol; KSV (DNA [22]): 1.21 ×10⁴ L/mol; inhibition (DNA [23]): inactive; KSV (DNA [24]): 1.52 ×10⁴ L/mol; KSV (DNA [25]): 78.2 L/mol
CCn1c(Cn2cnc3c(N4CCOCC4)ncnc32)nc2ccccc21	256 (≈ 704 µM)	256 (≈ 704 µM)	256 (≈ 704 µM)	256 (≈ 704 µM)	256 (≈ 704 µM)	128 (≈ 352 µM)	128 (≈ 352 µM)	256 (≈ 704 µM)	128 (≈ 352 µM)	256 (≈ 704 µM)	256 (≈ 704 µM)	256 (≈ 704 µM)	256 (≈ 704 µM)	128 (≈ 352 µM)	128 (≈ 352 µM)	256 (≈ 704 µM)	
c1nc(N2CCOCC2)c2nc[nH]c2n1	512 (≈ 2490 µM)	512 (≈ 2490 µM)	256 (≈ 1250 µM)	512 (≈ 2490 µM)	256 (≈ 1250 µM)	256 (≈ 1250 µM)	256 (≈ 1250 µM)	256 (≈ 1250 µM)	256 (≈ 1250 µM)	256 (≈ 1250 µM)	512 (≈ 2490 µM)	128 (≈ 624 µM)	256 (≈ 1250 µM)	256 (≈ 1250 µM)	128 (≈ 624 µM)	256 (≈ 1250 µM)	
Fc1ccccc1Cn1c(Cn2cnc3c(N4CCOCC4)ncnc32)nc2ccccc21	256 (≈ 577 µM)	128 (≈ 289 µM)	256 (≈ 577 µM)	16 (≈ 36.1 µM)	128 (≈ 289 µM)	64 (≈ 144 µM)	256 (≈ 577 µM)	256 (≈ 577 µM)	64 (≈ 144 µM)	256 (≈ 577 µM)	512 (≈ 1150 µM)	64 (≈ 144 µM)	64 (≈ 144 µM)	32 (≈ 72.2 µM)	64 (≈ 144 µM)	32 (≈ 72.2 µM)	
CCCCCCCCCCCCCCCCn1c(Cn2cnc3c(N4CCOCC4)ncnc32)nc2ccccc21	512 (≈ 915 µM)	256 (≈ 457 µM)	128 (≈ 229 µM)	256 (≈ 457 µM)	256 (≈ 457 µM)	512 (≈ 915 µM)	256 (≈ 457 µM)	128 (≈ 229 µM)	512 (≈ 915 µM)	64 (≈ 114 µM)	128 (≈ 229 µM)	128 (≈ 229 µM)	256 (≈ 457 µM)	512 (≈ 915 µM)	32 (≈ 57.2 µM)	256 (≈ 457 µM)	
Clc1ccc(Cn2c(Cn3cnc4c(N5CCOCC5)ncnc43)nc3ccccc32)cc1	512 (≈ 1110 µM)	128 (≈ 278 µM)	256 (≈ 557 µM)	256 (≈ 557 µM)	512 (≈ 1110 µM)	256 (≈ 557 µM)	256 (≈ 557 µM)	64 (≈ 139 µM)	128 (≈ 278 µM)	512 (≈ 1110 µM)	512 (≈ 1110 µM)	256 (≈ 557 µM)	256 (≈ 557 µM)	512 (≈ 1110 µM)	256 (≈ 557 µM)	128 (≈ 278 µM)	
Fc1ccc(Cn2c(Cn3cnc4c(N5CCOCC5)ncnc43)nc3ccccc32)cc1	256 (≈ 577 µM)	64 (≈ 144 µM)	256 (≈ 577 µM)	256 (≈ 577 µM)	256 (≈ 577 µM)	128 (≈ 289 µM)	256 (≈ 577 µM)	64 (≈ 144 µM)	128 (≈ 289 µM)	512 (≈ 1150 µM)	256 (≈ 577 µM)	128 (≈ 289 µM)	256 (≈ 577 µM)	256 (≈ 577 µM)	256 (≈ 577 µM)	64 (≈ 144 µM)	
Cc1nc2cc([N+](=O)[O-])ccc2n1CCn1cnc2c(N3CCOCC3)ncnc21	256 (≈ 627 µM)	128 (≈ 313 µM)	512 (≈ 1250 µM)	64 (≈ 157 µM)	32 (≈ 78.4 µM)	128 (≈ 313 µM)	16 (≈ 39.2 µM)	64 (≈ 157 µM)	256 (≈ 627 µM)	16 (≈ 39.2 µM)	256 (≈ 627 µM)	128 (≈ 313 µM)	128 (≈ 313 µM)	64 (≈ 157 µM)	128 (≈ 313 µM)	64 (≈ 157 µM)	
